Experimental data from patent publication US6924100B2, “Gene alteration in the gene for the Gβ3-subunit of the human G protein” (priority 1998, dated 2005).

What was measured:
[1] = system: coronary vessels; experiment: Coronary blood flow change after intracoronary BHT 933; assay type: in vivo, human; conditions: carriers of the GNB3-825T allele, with or without CHD, FIG. 8
From the text: An alpha2 adrenergic agonist (BHT 933) was applied intracoronary in the probands; it leads to contraction of coronary vessels. This effect was quantified via the flow change through these sections of the vessels. […] This means that in carriers of the GNB3-825T allele the intensification of the action of these pharmaceuticals can be predicted.

[2] = system: males with penile dysfunction; experiment: Erection score and arterial blood flow after prostaglandin E1 injection into the corpus cavernosum; assay type: in vivo, human; conditions: for males with insufficient or absent erection / males with sufficient erection (scores 4 and 5): 10 micrograms, of 87 males
Procedure: When erectile dysfunction is present, prostaglandin E1 is injected into the corpus cavemosum for diagnostic clarification, but also possibly to begin long-term therapy. Prostaglandin E1 activates adenylcyclase, and the subsequent formation of cAMP relaxes smooth vascular muscle cells and thus induces an increased arterial blood flow and thus erection of the penis. The degree of the erection which occurs can be quantified via a point system (score 0-5). Here the scores 4 and 5 correspond to an erection which is sufficient for penetration, while scores<4 can be considered as insufficient.
In 87 males with penile dysfunction, 10 micrograms of prostaglandin E1 were administered with quantification of the erection score. Here the genotype distribution was as follows: Sufficient erection (scores 4 and 5): TT=3; TC=15; CC=16; (frequency of GNB3 825T allele: 30.9%). Insufficient or absent erection: TT=3; TC=16; CC=34; (frequency of the GNB3 825T allele: 20.8%).

[3] = target: T1, m2-muscarinergic receptor (Homo sapiens, UniProt P08172); experiment: G protein stimulation by carbachol in Sf9 cells expressing m2-muscarinergic receptor, Galphai3, Ggamma5 and Gβ3 or Gβ3s; assay type: cell-based; conditions: in the presence of Gβ3 (so in the source), FIG. 2
T1 sequence (P08172 1-466): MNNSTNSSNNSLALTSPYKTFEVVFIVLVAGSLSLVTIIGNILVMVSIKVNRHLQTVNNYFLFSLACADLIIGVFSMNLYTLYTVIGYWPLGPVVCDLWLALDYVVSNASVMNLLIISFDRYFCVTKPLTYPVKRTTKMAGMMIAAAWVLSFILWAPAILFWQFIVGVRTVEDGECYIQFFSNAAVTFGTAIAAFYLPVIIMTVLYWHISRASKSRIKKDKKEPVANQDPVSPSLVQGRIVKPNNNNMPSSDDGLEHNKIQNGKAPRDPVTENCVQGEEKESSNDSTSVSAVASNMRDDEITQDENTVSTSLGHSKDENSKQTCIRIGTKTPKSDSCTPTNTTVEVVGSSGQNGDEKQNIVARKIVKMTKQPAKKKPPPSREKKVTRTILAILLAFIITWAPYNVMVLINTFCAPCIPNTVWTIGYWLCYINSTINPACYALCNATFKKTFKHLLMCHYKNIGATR
From the text: Here the m2-muscarinergic receptor is expressed together with the G protein subunits Galphai3 and Ggamma5 and either Gβ3 or Gbeta3-s in the Sf9 system.

[4] = system: neutrophilic granulocytes; experiment: fMLP-stimulated chemotaxis of neutrophilic granulocytes; assay type: cell-based, human; conditions: granulocytes of carriers of the GNB3-825T allele, FIG. 5
From the text: It is therefore used as a test system for measurement of chemotactic reactions of cells which is well known to one skilled in the art. The fMLP receptor, as is known, activates the pertussis toxin-sensitive G proteins. The statement that granulocytes of carriers of the GNB3-825T allele show intensified fMLP-stimulated chemotaxis is in agreement with the fact that chemotaxis of betagamma subunits is mediated.

[5] = system: beta-adrenergic receptors; experiment: Cardiac output after intravenous beta-adrenoceptor blocker; assay type: in vivo, human; conditions: average
[6] = system: G protein alpha subunits; experiment: 35S-GTPgammaS binding to permeabilized Sf9 cells (Galphai2, Ggamma12, m2 receptor) after carbachol; assay type: cell-based, human; conditions: carbachol 100 microM, versus no beta subunit, FIG. 15
From the text: First of all, it was studied whether G protein heterotrimers which contain Gβ3s-2 are functionally active. As described earlier, the Sf9 insect cell system was used for this purpose (Siffert, W., Rosskopf, D., Siffert, G., Busch, S., Moritz, A., Erbel, R., Sharma, A. M., Ritz, E.; Wichmann, H. E., Jakobs, K. H., and Horsthemke, B. Association of a human G protein β3 subunit variant with hypertension. Nat. Genet. 18(1): 45-48, 1998). The cells were transfected with Galphai2, Ggamma12 and the m2-muscarinergic acetylcholine receptor. The bonding of 35S-GTPgammaS to permeabilized cells was quantified after stimulation with carbachol (100 microM). Here the specific incorporation of 35S-GTPgammaS is a measure of the activation of G protein alpha subunits. […] Thus it is shown at the same time that Gβ3s-2 in spite of the deletion of one propeller blade is functionally active and even leads to intensified activation of G proteins. […] Galphai2, Galphai3, G-1, and G-2 are not mutated. Circ. Res. 79:974-983, 1996. Siffert, W., Rosskopf, D., Moritz, A., Wieland, T., Kaldenberg-Stasch, S., Kettler, N., Hartung, K., Bechmann, S., and Jakobs, K. H. Enhanced G protein activation in immortalized lymphoblasts from patients with essential hypertension. J. Clin. Invest. 96:759-766, 1995. Wirchow, S., Ansorge, N., Ruebben, H., Wiffert, G., and Siffert, W. Enhanced fMLP-stimulated chemotaxis in human neutrophils from individuals carrying out the G protein beta3 subunit 825T-allele. FEBS Lett. 436(2): 155-158, 1998).

[7] = system: phospholipase Cβ3 (PLCbeta3); experiment: Inositol phosphate formation in COS-7 cells transfected with PLCβ3, Ggamma12 and Gβ subunits; assay type: cell-based; conditions: betagamma dimers with Ggamma12, FIG. 16
From the text: It is generally known that betagamma subunits of heterotrimeric G proteins can stimulate different isoforms of the phospholipase Cbeta. This enzyme splits phospholipids, for example phosphatdylinositol-4,5-bisphosphate into the “second messenger” molecules inositol-1,4,5 triphosphate (IP3) and 1,2-diacylglycerol (DAG), IP3 causes release of calcium ions from intracellular reservoirs, while DAG activates different isoforms of the protein kinase C. Activation of phospholipase C is thus an important step in cell activation. It was examined whether betagamma subunits which contain Gβ3s-2 can activate the phospholipase Cβ3 (PLCbeta3). To do this the COS-7 cell system was used which is often used in the generally accessible literature for transient transfection of proteins. These cells were transfected with the PLCβ3, Ggamma12 and different Gβ subunits. The cells were pretreated with radioactively tagged [3H] inositol. The formation of inositol phosphates (IP) was quantified using standard methods, the amount of the 1P formed constituting a measure of the activation of the PLC. As is shown in FIG. 16, betagamma dimers which contain Gβ3, Gβ3s, or Gβ3s-2 can activate PLCβ33. Likewise, activation of PLCβ3 after transfection of Gβ1 is shown for comparison.

[8] = system: G protein alpha-subunits; experiment: [35S]GTPgammaS incorporation after Mas-7 stimulation, COS-7 transfection system; assay type: cell-based, human; conditions: COS-7 cells, FIG. 1
From the text: The subject matter of this invention is based on the finding that the Gβ3s subunit leads to increased activation capacity of G proteins. The increased activation capacity of G proteins was detected via transfection of the corresponding cDNAs and the expression of Gβ3 and Gβ3s in the COS-7 transfection system which is well known to one skilled in the art. […] To quantify the activation capacity of G proteins, here the incorporation of radioactively tagged [35S]GTPgammaS into G protein alpha-subunits after stimulation with the peptide mastoparan-7 (Mas-7) was measured.

In the case of `CCN1CCc2nc(N)oc2CC1` [BHT 933], the “reduction of coronary blood flow” value [1] is reported as “intensified reduction of coronary blood flow”.

In the case of `CCCCC[C@H](O)/C=C/[C@H]1[C@H](O)CC(=O)[C@@H]1CCCCCCC(=O)O` [prostaglandin E1], the “males with insufficient or absent erection” value ([2]; genotype CC) is reported as 34, the “males with sufficient erection (scores 4 and 5)” value (from here on “males with sufficient erection”) ([2]; genotype CC) is reported as 16 and the “males with insufficient or absent erection” value ([2]; genotype TC) is reported as 16. The “males with sufficient erection” value ([2]; genotype TC) was 15, the “males with insufficient or absent erection” value ([2]; genotype TT) was 3 and the “males with sufficient erection” value ([2]; genotype TT) was 3. For the same molecule, the “increase of the arterial blood flow (doppler sonography)” value ([2]; after injection, homozygotic C825 allele carriers) was “reduced increase of the arterial blood flow”.

With `C[N+](C)(C)CCOC(N)=O` [carbachol] the “potency and efficiency of the agonist for stimulation of G proteins” value [3] was “increased potency and increased efficiency”.

For fMLP, the chemotaxis [4] was “increased chemotaxis”.

For `CC(C)NCC(O)COc1cccc2ccccc12` (stereo not shown) [propanolol], the “decrease of cardiac output” value ([5]; homozygotic C825 carriers) was 3 mL and the “decrease of cardiac output” value ([5]; homozygotic and heterozygotic 828T (so in the source) allele carriers) was 12 mL.

B1: Gβ3: Gβ3-subunit of the human G protein (protein, UniProt P16520 1-340, looked up)
Guanine nucleotide-binding …: MGEMEQLRQEAEQLKKQIADARKACADVTLAELVSGLEVVGRVQMRTRRTLRGHLAKIYAMHWATDSKLLVSASQDGKLIVWDSYTTNKVHAIPLRSSWVMTCAYAPSGNFVACGGLDNMCSIYNLKSREGNVKVSRELSAHTGYLSCCRFLDDNNIVTSSGDTTCALWDIETGQQKTVFVGHTGDCMSLAVSPDFNLFISGACDASAKLWDVREGTCRQTFTGHESDINAICFFPNGEAICTGSDDASCRLFDLRADQELICFSHESIICGITSVAFSLSGRLLFAGYDDFNCNVWDSMKSERVGILSGHDNRVSCLGVTADGMAVATGSWDSFLKIWN
For B1, the “G protein activation (specific 35S-GTPgammaS incorporation)” value (“G protein activation” for short) [6] was “clearly intensified” and the “activation of PLCβ3 (inositol phosphate formation)” value (shortened to “activation of PLCβ3”) [7] was “can activate”.

B2: Gβ3s: alternative splice product of human GNB3 with loss of 41 amino acids (protein, listed as Homo sapiens)
chain: MGEMEQLRQEAEQLKKQIADARKACADVTLAELVSGLEVVGRVQMRTRRTLRGHLAKIYAMHWATDSKLLVSASQDGKLIVWDSYTTNKVHAIPLRSSWVMTCAYAPSGNFVACGGLDNMCSIYNLKSREGNVKVSRELSAHTGYLSCCRFLDDNNIVTSSGDTTCALWDIETGQQKTVFVGHTGDCMSLAVSPDFNLFISGACDASAKLWDVREGTCRQTFTGQESDINAICFFSLSGRLLFAGYDDFNCNVWDSMKSERVGILSGHDNRVSCLGVTADGMAVATGSWDSFLKIWN
For B2, the “activation capacity of G proteins ([35S]GTPgammaS incorporation)” value [8] was “clearly increased compared to Gβ3”, the “G protein activation” value [6] was “more potent than Gβ3” and the “activation of PLCβ3” value [7] was “can activate”.

B3: Gβ3s-2: new splice variant of the Gβ3 subunit of human G protein, deletion of 43 amino acids, SEQ ID NO:4 (protein, listed as Homo sapiens)
chain: MGEMEQLRQEAEQLKKQIADARKACADVTLAELVSGLEVVGRVQMRTRRTLRGHLAKIYAMHWATDSKLLVSASQDGKLIVWDSYTTNKVHAIPLRSSWVMTCAYAPSGNFVACGGLDNMCSIYNLKSREGNVKVSRELSAHTGYLSCCRFLDDNNIVTSSGDTTCALWDIETGQQKTVFVGHTGDCMSLAVSPDFNLFISGACDASAKLWDVREGTCRQTFTGQESDINAICFFSLSGRLLFAGYDDFNCNVWDSMKSERVGILSGHDNRVSCLGVTADGMAVATGSWDSFLKIWN
With B3 the “G protein activation” value [6] was “strongest potentiation” and the “activation of PLCβ3” value [7] was “can activate”.
